Reference: patent US20060154948A1, “Treating allergic and inflammatory conditions” (priority 2005, published 2006)

Tested on: seasonal allergic rhinitis
Assay: Double-blinded, randomized clinical trials in seasonal allergic rhinitis patients
Experimental: Efficacy endpoints in all the studies were Total Symptom Score, Total Nasal Symptom Score, Total Non-nasal Symptom Score, and Health Quality of Life (HQOL) analysis in efficacy trials. […] This parameter measures the total symptom relief by the patient after 24 hours before taking the next day dose.

Compound: Clc1ccc2c(c1)CCc1cccnc1C2=C1CCNCC1 [Desloratadine, desloratadine]
- Total symptom scores (5 mg once daily, adult and adolescent seasonal allergic rhinitis patients): significantly reduced
- Reduction of nasal symptoms versus placebo (5 mg, seasonal allergic rhinitis patients): significantly (p<0.01) more effective than placebo
- AM NOW total symptom score (24 hours after dose, over the entire dosage range): Statistically significant (p<0.05) reductions were maintained for the full 24 hour dosing interval
